This is an account of results in patent US20220380376A1, “Nitrogen Oxide-Donating PDE-5 and/or PDE-6 Inhibitor Compounds” (ILDONG PHARMACEUTICAL CO., LTD., priority 2019, published 2022).

SMILES strings stand for the structures.

Series [1] can be described thus: Plasma protein binding assay (equilibrium dialysis). In kind it is in vitro ADME. The following applies: human plasma, 2 μM, dialysis 4 hours at 37° C. As for the experimental part: The dialysis device used in this example is a 96-well equilibrium dialysis plate (Cat #1006, HT Dialysis LLC, Gales Gerry, CT), and HTD 96 a/b dialysis membrane strips (Cat #1101, MWCO 12-14 kDa, HT Dialysis LLC). The dialysis device was assembled following the manufacturer's instructions.
The dialysis membrane strips were soaked in ultra-pure water at room temperature for approximately 1 hour. Each membrane strip containing 2 membranes was separated and soaked in 20:80 ethanol/water (v/v) for approximately 20 minutes, after which they were ready for used or were stored in the solution at 2-8° C. for up to a month. Prior to experiment, the membrane was rinsed and soaked for 20 minutes in ultra-pure water.
On the day of the experiment, the plasma was thawed by running under col tap water and centrifuged at 3220 rpm for 5 minutes to remove any clos. The pH value of the resulting plasma was checked. Only plasma with pH value with 7.0-8.0 could be used.
Both test and control compounds were dissolved in DMSO to achieve 10 mM stock solutions. Working solutions (400 μM) if test and control compounds were prepared by diluting 10μ p of stock solutions with 240 μL of DMSO. Loading matrix solutions (2 μM) of both test and control compounds were prepared by diluting 5 μL of working solutions with 995 μL of blank matrix.
To prepare the loading matrix containing the test compound or control compounds, aliquots of either test compound working solutions or control compound working solution were spiked into blank matrix to achieve final test concentrations. The concentration of organic solvent in the final solutions were no more than 1% (normally 0.5%). The samples were mixture thoroughly before being used.
To prepare the time zero (TO) samples to be used for recovery determinations. 50 μL aliquots of loading matrix solution were transferred in triplicate to the sample collection plate. The samples were immediately matched with opposite blank buffer to obtain a final volume of 100 μL of 1:1 matrix/dialysis buffer (v/v) in each well. 500 μL of stop solution were added to these TO samples. They were then stored at 2-8° C. pending further processes along with other post-dialysis samples.
To load the dialysis device, an aliquot of 150 μL of the loading matrix was transferred to the donor side of each dialysis well in triplicate, and 150 μL of the dialysis buffer was loaded to the received side of the well. The dialysis was placed in humidified incubator at 37° C. with 5% CO2 on a shaking platform that rated slowly (about 100 rpm) for 4 hours.
At the end of the dialysis, aliquots of 50 μL of samples were taken from both the buffer side and the matrix side of the dialysis deice. These samples were transferred into new 96-well plates (the sample collection plates). […]
A general note: In equilibrium dialysis only unbound substance equilibrates across the membrane.

The target of a further series is human PDE-5A1 (Homo sapiens, UniProt O76074). Description: Human PDE-5A1 inhibition assay (fluorescence polarization). Type of series: biochemical. Conditions: human PDE5A1, 100 nM FAM-cGMP, 60 minutes at room temperature. For orientation: Fluorescence polarisation rises when a labelled molecule tumbles more slowly, as on binding a larger partner.
The target in a further series is human PDE-6C (Homo sapiens, UniProt P51160). The experiment in a line: Human PDE-6C inhibition assay (fluorescence polarization). In kind it is biochemical. Conditions: human PDE6C, 100 nM FAM-cGMP, 60 minutes at room temperature.
Chain of human PDE-6C (P51160 whole entry): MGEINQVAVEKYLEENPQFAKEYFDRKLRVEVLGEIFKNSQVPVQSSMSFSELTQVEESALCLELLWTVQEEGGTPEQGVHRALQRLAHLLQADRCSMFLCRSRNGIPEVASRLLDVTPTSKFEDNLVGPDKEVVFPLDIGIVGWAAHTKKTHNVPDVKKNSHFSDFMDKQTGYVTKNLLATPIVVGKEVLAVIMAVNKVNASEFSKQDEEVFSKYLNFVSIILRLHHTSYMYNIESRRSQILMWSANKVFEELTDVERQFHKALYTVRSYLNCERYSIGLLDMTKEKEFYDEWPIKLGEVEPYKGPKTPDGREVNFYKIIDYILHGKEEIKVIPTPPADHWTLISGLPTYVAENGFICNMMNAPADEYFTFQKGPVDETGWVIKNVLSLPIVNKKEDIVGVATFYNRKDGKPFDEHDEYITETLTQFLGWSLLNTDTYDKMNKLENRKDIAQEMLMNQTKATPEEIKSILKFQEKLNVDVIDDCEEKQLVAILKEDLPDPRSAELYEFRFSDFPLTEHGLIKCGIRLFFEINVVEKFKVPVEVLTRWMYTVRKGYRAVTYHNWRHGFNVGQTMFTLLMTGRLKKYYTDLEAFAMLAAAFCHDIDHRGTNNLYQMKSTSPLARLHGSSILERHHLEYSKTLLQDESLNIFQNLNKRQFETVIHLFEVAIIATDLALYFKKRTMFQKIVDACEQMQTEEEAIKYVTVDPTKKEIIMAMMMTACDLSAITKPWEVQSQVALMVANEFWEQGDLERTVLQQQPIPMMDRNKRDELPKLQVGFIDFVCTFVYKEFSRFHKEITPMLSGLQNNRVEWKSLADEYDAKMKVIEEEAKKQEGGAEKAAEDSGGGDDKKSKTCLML
The test system of series [2] is ocular normotensive rabbits. The experiment in a line: In vivo intraocular pressure (IOP) lowering effect in rabbits. Set-up: species or system New Zealand white rabbits. Conditions: 50 μL per eye once, right eye vs vehicle in left eye, 1-10 hours post dose. The text has this:
This example illustrates the procedures and results of the intraocular pressure (IOP) lowering effect of compound 18 as compared to Latanoprostene bunod and latanoprost at different concentrations in ocular normotensive rabbits.
Forty (40) male New Zealand white rabbits were divided into 4 groups with 10 animals per group. Animals were then randomly assigned to groups based on body weight.
Latanoprostene bunod ophthalmic solution (LBN, 0.024%) and latanoprost eye drops (0.005%) were used as positive controls and dosed with the same volumes into the right eyes of the tested animals in groups 1 and 2 once.
Compound 18 was instilled into the right eyes of the tested animals in groups 3 (10 mg/mL) and 4 (20 mg/mL) at 50 μL per eye once.
All left eyes of the tested animals in each group were dosed with vehicle solution at 50 μL per eye.
The intraocular pressures (IOPs) were measured once at pre-dose and then once at 1, 2, 4, 6, 8, and 10 hours post dose for each group of animals. FIGS. 1 to 4 show the results from the IOP lowering studies for all four tested groups.

Consider `CCCc1nn(C)c2c(=O)[nH]c(-c3cc(S(=O)(=O)N4CC(CCCO)C4)ccc3OCC)nc12` [Compound 4, 5-(2-ethoxy-5-((3-(3-hydroxypropyl)azetidin-1-yl)sulfonyl)phenyl)-1-methyl-3-propyl-1,6-dihydro-7H-pyrazolo[4,3-d]pyrimidin-7-one], for which the “% Bound” value in series [1] came out at 96.01%.
Broadly, the IC50 is the midpoint of a concentration-inhibition curve. Read a low IC50 as greater potency. Turning to `CCCc1nn(C)c2c(=O)[nH]c(-c3cc(S(=O)(=O)N4CC(NCCCO)C4)ccc3OCC)nc12` [Compound 10, 5-(2-ethoxy-5-((3-((3-hydroxypropyl)amino)azetidin-1-yl)sulfonyl)phenyl)-1-methyl-3-propyl-1,6-dihydro-7H-pyrazolo[4,3-d]pyrimidin-7-one], the IC50 against human PDE-5A1 and on human PDE-6C was less than 0.01 µM in each case. In addition, the “% Bound” value in series [1] came to 86.19%.
Turning to `CCCc1nn(C)c2c(=O)[nH]c(-c3cc(S(=O)(=O)N4CC(CCO[N+](=O)[O-])C4)ccc3OCC)nc12` [Compound 17, 2-(1-((4-ethoxy-3-(1-methyl-7-oxo-3-propyl-6,7-dihydro-1H-pyrazolo [4,3-d]pyrimidin-5-yl)phenyl)sulfonyl)azetidin-3-yl)ethyl nitrate], the IC50 against human PDE-5A1 and against human PDE-6C was less than 0.01 µM in each case.
Take `CCCc1nn(C)c2c(=O)[nH]c(-c3cc(S(=O)(=O)N4CC(CCCO[N+](=O)[O-])C4)ccc3OCC)nc12` [Compound 18, 3-(1-((4-ethoxy-3-(1-methyl-7-oxo-3-propyl-6,7-dihydro-1H-pyrazolo[4,3-d]pyrimidin-5-yl)phenyl)sulfonyl)azetidin-3-yl)propyl nitrate]: the IC50 at human PDE-5A1 and against human PDE-6C was less than 0.01 µM in each case. The IOP lowering effect result in series [2] (10 mg/mL) and in series [2] (20 mg/mL) was “significantly lower the IOP” in each case. The “% Bound” value in series [1] came out at 99.52%.
For `CCCc1nn(C)c2c(=O)[nH]c(-c3cc(S(=O)(=O)N4CC(NCCCO[N+](=O)[O-])C4)ccc3OCC)nc12` [Compound 22, 3-((1-((4-ethoxy-3-(1-methyl-7-oxo-3-propyl-6,7-dihydro-1H-pyrazolo[4,3-d]pyrimidin-5-yl)phenyl)sulfonyl)azetidin-3-yl)amino)propyl nitrate], in series [1], the “% Bound” value came to 97.53%.
